Like-named read-outs stand apart in the source and are kept apart here.
Columns and labels:
[1] = test system: CTZ‐resistant P. aeruginosa (n = 2); assay type: cell-based
Protocol: The minimum inhibitory concentration (MIC) of the β‐lactam–peptide conjugates was determined by broth microdilution as previously described.^[ [17] ^] Briefly, in cation‐adjusted MHB II medium, a twofold serial dilution of the compounds was prepared in 96‐well round‐bottom polystyrene or polypropylene microtiter plates with each well containing 50 µL. The plates were inoculated with 50 µL bacterial suspension and the final inoculum, in a total volume of 100 µL, contained 5 × 10^5 CFU mL^−1. The microplates were incubated for 20 h at 37 ± 1 °C. The lowest concentration preventing visible bacterial growth was considered the MIC value. For susceptibility testing of combinations of β‐lactamase‐inhibitors with either a β‐lactam antibiotic or a β‐lactam–peptide conjugate, fixed concentrations of the inhibitors according to the EUCAST (European Committee on Antimicrobial Susceptibility Testing) guidelines (clavulanic acid = 2 mg L^−1, avibactam = 4 mg L^−1) were used.

PBP4 = target: T1, PBP4 (Bacillus subtilis, UniProt P40750); assay: Gel‐based PBP affinity assay (Bocillin FL competition); assay type: binding; conditions: B. subtilis membrane fractions, competition with Bocillin FL penicillin
T1 construct: endogenous in cells; host or cells: B. subtilis DSM 10, extracted membrane protein fraction
Protocol: (§1) B. subtilis DSM 10 and E. faecalis ATCC 51 299 (equal to DSM 12 956) membrane protein fractions were extracted according to the protocol of Dean et al. with minor modifications.^[ [34] ^] From a growing overnight bacterial culture, 3 L of LB (Luria‐Bertani) medium or TSB (tryptic soy broth) were inoculated with B. subtilis DSM 10 and E. faecalis ATCC 51 299, respectively, to obtain an OD600 = 0.3. The cultures were grown to an OD600 = 0.6–0.8 while shaking at 37 °C and cells were harvested by centrifugation at 4000 g for 30 min at 4 °C. The resulting pellet was washed twice with pre‐cooled PBS and resuspended in 30 mL of ice‐cooled PBS. The suspension was sonicated on ice (10 cycles of 30 s at 50% power for B. subtilis; 12 cycles of 30 s at 80% power for E. faecalis; 2 min intervals between cycles) using an Omni Ruptor 4000 ultrasonic homogenizer (Omni International, Kennesaw, GA, USA). Afterwards, the suspension was centrifuged at 7000 g for 10 min at 4 °C. The clear supernatant was transferred into a 50 mL polypropylene tube and centrifuged in a Beckman Coulter centrifuge equipped with a JA‐20 fixed‐angle rotor (Beckman Coulter, Krefeld, Germany) at 50 000 g for 1 h at 4 °C. The resulting pellet was washed with ice‐cold PBS and centrifuged a second time. The pellet was resuspended in 2 mL PBS and aliquots were stored at −80 °C. The protein content was determined using Bradford reagent (VWR International, Darmstadt, Germany) and Pierce BCA (bicinchoninic acid) protein assay kits (Thermo Fisher Scientific, Waltham, MA, USA) for membrane fractions of B. subtilis and E. faecalis, respectively.
(§2) Each dilution was combined with B. subtilis (30 µg) or E. faecalis (15 µg) extracted membrane fractions. As reference samples, membrane fractions incubated with only PBS were prepared. Reaction mixtures were incubated for 20 min at 37 °C while shaking at 400 rpm. Next, Bocillin FL penicillin (Thermo Fisher Scientific, Waltham, MA, USA) was added to obtain a final concentration of 20 µM in the mixture. Samples were incubated for 30 min at 37 °C while shaking at 400 rpm. To denature the samples, 4× Laemmli sample buffer (Bio‐Rad Laboratories, Feldkirchen, Germany) was added, and the samples incubated for 10 min at 70 °C. Afterwards, the samples were centrifuged for 5 min at 13 000 rpm. Samples were separated by SDS‐PAGE using a 10% Tris‐glycine gel for 100 min at 180 V. The bands were visualized using a Typhoon FLA 9500 imager (GE Healthcare, Chicago, IL, USA) with excitation at 473 nm. The gel images were analyzed using ImageJ software. Brightness and contrast were adjusted to improve the signal‐to‐noise ratio and the background signal was subtracted over the whole image. Next, integrated density values of the gel bands were measured and Bocillin FL penicillin labeling of each PBP in antibiotic‐treated samples were set in proportion to the reference sample. IC50 values were calculated with GraphPad Prism software (version 8.0.1) using inhibitor versus normalized response variable slope and least‐squares fit. […] The mean was calculated using the IC50 values of at least two independent assays for each antibiotic.

PBP2B = target: T2, PBP2B (Bacillus subtilis, UniProt Q07868); assay: as above; assay type: binding; conditions: B. subtilis membrane fractions, competition with Bocillin FL penicillin
T2 construct: endogenous in cells; host or cells: B. subtilis DSM 10, extracted membrane protein fraction
Protocol: as §1, §2

PBP1A/B = PBP1A/B (Bacillus subtilis, UniProt P39793); assay: as above; assay type: binding; conditions: B. subtilis membrane fractions, competition with Bocillin FL penicillin
Protocol: as §1, §2

[2] = test system: S. aureus NCTC 10442 (MRSA); assay: microbe, parasite or virus in culture; assay type: cell-based
How it was run: (§3)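 Twofold dilutions in cation-adjusted MHB II, inoculum 5 × 10^5 CFU mL^−1. Combination tests used clavulanic acid at 2 mg L^−1 or avibactam at 4 mg L^−1, fixed per EUCAST.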

[3] = test system: S. saprophyticus ATCC 15305; assay: microbe, parasite or virus in culture; assay type: cell-based
How it was run: as §3

B. subtilis DSM 10 [4] = assay: microbe, parasite or virus in culture; assay type: cell-based
How it was run: as §3

[5] = test system: E. casseliflavus ATCC 700327; assay: microbe, parasite or virus in culture; assay type: cell-based
How it was run: as §3

E. faecalis ATCC 29212 = assay: microbe, parasite or virus in culture; assay type: cell-based
How it was run: as §3

B. subtilis DSM 10 [6] = assay: Time‐kill assay; assay type: cell-based; conditions: for killing mechanism (time‐kill kinetics, CFU mL^−1): 50 or 100 µM, over 24 h
Protocol: For determination of time‐kill kinetics of the β‐lactam–peptide conjugates and their parent β‐lactams, 14 mL of cation‐adjusted MHB II medium was inoculated with an B. subtilis DSM 10 overnight culture to obtain an OD600 of 0.5, corresponding to ≈10^8 CFU mL^−1. To this exponentially growing culture, 50 or 100 µM of each of the antibiotics was added except for a negative control culture which was treated with only water. The bacterial cultures were incubated at 30 °C and 200 rpm and the OD600 was measured on 1 mL aliquots taken at 0, 10, 30, 45, 60, 90, 120, 240, 360, 480 and 1440 min. Additionally, at the same time points, 15 µL of serial tenfold dilutions of the bacterial suspension were plated onto MHB II agar plates. The agar plates were incubated overnight at 30 °C. The next day, bacterial colonies were counted and the CFU mL^−1 were calculated (limit of detection: 10^1.8 CFU mL^−1). For each antibiotic the assay was performed in triplicate (three biological replicates).

Sequence of PBP1A/B (P39793 1-662): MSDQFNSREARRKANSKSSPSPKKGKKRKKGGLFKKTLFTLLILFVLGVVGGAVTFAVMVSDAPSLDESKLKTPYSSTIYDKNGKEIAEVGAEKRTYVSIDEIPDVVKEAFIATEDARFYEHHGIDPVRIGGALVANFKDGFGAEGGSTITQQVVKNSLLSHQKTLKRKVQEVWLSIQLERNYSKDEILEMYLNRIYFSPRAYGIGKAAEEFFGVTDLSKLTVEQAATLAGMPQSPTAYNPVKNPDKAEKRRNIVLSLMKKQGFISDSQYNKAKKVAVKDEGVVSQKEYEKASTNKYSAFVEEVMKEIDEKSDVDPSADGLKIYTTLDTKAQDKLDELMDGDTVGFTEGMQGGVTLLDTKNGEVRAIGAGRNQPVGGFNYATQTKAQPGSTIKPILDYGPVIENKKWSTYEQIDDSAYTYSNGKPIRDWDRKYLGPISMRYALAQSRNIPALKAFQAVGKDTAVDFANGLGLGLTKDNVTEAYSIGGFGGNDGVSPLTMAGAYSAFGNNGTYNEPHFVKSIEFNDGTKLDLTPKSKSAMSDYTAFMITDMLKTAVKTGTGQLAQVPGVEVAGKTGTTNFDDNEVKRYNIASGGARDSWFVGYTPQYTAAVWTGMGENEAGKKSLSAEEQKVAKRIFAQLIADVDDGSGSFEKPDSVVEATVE
T1 sequence (P40750 22-624): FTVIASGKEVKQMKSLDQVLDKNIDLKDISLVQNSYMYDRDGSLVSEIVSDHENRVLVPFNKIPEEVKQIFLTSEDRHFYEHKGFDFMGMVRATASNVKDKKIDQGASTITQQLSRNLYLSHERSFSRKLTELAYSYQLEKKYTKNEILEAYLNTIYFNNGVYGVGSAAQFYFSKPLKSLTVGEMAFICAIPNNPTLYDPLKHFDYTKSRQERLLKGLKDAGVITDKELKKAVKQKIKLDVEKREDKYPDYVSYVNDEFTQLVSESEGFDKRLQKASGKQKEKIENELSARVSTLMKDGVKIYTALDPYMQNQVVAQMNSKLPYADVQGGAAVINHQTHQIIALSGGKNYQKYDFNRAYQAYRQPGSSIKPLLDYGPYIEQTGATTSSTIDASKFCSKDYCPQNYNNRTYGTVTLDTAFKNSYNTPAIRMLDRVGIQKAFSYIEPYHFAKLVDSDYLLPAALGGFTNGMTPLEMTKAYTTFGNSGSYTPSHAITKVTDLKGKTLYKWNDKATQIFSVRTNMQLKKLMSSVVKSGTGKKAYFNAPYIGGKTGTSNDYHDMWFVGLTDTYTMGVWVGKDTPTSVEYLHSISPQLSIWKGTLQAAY
T2 sequence (Q07868 whole entry): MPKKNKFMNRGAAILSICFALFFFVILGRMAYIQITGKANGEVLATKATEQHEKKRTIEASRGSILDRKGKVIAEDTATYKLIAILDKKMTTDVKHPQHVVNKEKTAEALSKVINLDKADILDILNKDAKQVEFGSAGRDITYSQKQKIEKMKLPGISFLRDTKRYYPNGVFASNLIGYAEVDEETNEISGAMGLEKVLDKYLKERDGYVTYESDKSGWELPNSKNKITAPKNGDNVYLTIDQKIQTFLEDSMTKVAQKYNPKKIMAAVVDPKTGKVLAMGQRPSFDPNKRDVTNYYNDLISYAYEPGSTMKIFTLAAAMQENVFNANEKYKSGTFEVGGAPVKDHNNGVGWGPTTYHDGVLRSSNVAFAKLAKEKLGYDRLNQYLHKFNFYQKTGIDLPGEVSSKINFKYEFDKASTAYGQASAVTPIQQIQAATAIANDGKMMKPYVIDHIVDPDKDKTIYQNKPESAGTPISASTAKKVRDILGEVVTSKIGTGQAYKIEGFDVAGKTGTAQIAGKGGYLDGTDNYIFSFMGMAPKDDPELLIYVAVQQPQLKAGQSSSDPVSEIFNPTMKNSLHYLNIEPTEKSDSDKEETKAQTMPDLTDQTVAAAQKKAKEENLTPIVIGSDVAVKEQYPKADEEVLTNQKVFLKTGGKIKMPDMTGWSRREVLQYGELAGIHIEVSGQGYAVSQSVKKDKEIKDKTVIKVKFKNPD

Compound	MIC range ([1]; CTZ‐resistant P. aeruginosa (n = 2)) [µg/mL]	binding to PBP4 (PBP4)	binding to PBP2B (PBP2B)	binding to PBP1A/B (PBP1A/B)	MIC ([2]; Staphylococcus aureus, S. aureus NCTC 10442 (MRSA), median (n = 3), read-out: MIC) [µg/mL]	MIC ([3]; Staphylococcus saprophyticus, ATCC15305, S. saprophyticus ATCC 15305, median (n = 3), read-out: MIC) [µg/mL]	MIC (B. subtilis DSM 10 [4]; Bacillus subtilis, DSM10, B. subtilis DSM 10, median (n = 3), read-out: MIC) [µg/mL]	MIC ([5]; Enterococcus casseliflavus, ATCC700327, E. casseliflavus ATCC 700327, median (n = 3), read-out: MIC) [µg/mL]	MIC (E. faecalis ATCC 29212; Enterococcus faecalis, ATCC29212, E. faecalis ATCC 29212, median (n = 3), read-out: MIC) [µg/mL]	killing mechanism (time‐kill kinetics, CFU mL^−1) (B. subtilis DSM 10 [6])	MIC range ([1]; CTZ‐resistant (n = 2, 20 h)) [µg/mL]	MIC ([2]; NCTC 10442, 20 h) [µg/mL]	MIC ([3]; ATCC 15305, 20 h) [µg/mL]	MIC (B. subtilis DSM 10 [4]; DSM 10, 20 h) [µg/mL]	MIC ([5]; ATCC 700327, 20 h) [µg/mL]	MIC (E. faecalis ATCC 29212; ATCC 29212, 20 h) [µg/mL]	drop in CFU (to the detection limit) (B. subtilis DSM 10 [6]; 100 µM, after 6 h) [log units]
CC(C)(O/N=C(\C(=O)N[C@@H]1C(=O)N2C(C(=O)[O-])=C(C[n+]3ccccc3)CS[C@H]12)c1csc(N)n1)C(=O)O [CTZ, ceftazidime, reference compound]	32 to 64	strong binding	strong binding	strong binding	16	32	8	> 2050	4	time‐dependent killing mechanism							
CC(C)(O/N=C(\C(=O)N[C@@H]1C(=O)N2C(C(=O)[O-])=C(C[n+]3ccccc3)CS[C@H]12)c1csc(N)n1)C(=O)NCCCCCCN1C(=O)CC(SC[C@H](NC(=O)[C@H](CCCNC(=N)N)NC(=O)[C@H](CCCNC(=N)N)NC(=O)[C@H](CCCNC(=N)N)NC(=O)[C@H](CCCNC(=N)N)NC(=O)[C@H](CCCNC(=N)N)NC(=O)[C@@H](N)CCCNC(=N)N)C(N)=O)C1=O (stereo partly drawn) [CTZ-R6]		decreased in comparison to CTZ	showed affinity	decreased in comparison to CTZ						concentration‐dependent killing mechanism	2 to 16	2	0.02	0.008	0.25	<0.004	6
